Results on four molecules are retold here after ChEMBL document CHEMBL1159272, “Antimicrobial metabolites from a bacterial symbiont” (1995).

In brackets after ≈: the same amount, converted by molar mass.

Holding throughout (assay type): functional
The test system of one assay is Aspergillus fumigatus. The assay can be described thus: Antifungal activity against Aspergillus fumigatus ATCC 13073 after 24 hrs by serial dilution method. As to conditions: ATCC 13073, 24 h.
The test system of the next assay is Aspergillus flavus. The assay can be described thus: Antifungal activity against Aspergillus flavus ATCC 24133 after 24 hrs by serial dilution method. Particulars: ATCC 24133, 24 h.
The next assay deals with Botrytis cinerea. The assay is described as follows: Antifungal activity against Botrytis cinerea after 48 hrs by serial dilution method.
The subject of the next assay is Candida tropicalis. The assay is described as follows: Antifungal activity against Candida tropicalis CBS94 after 24 hrs by serial dilution method.
The next assay has as its system Cryptococcus neoformans. The assay can be described thus: Antifungal activity against Cryptococcus neoformans ATCC 14117 after 24 hrs by serial dilution method. Particulars: ATCC 14117, 24 h.
A further assay has as its system Phytophthora infestans. The assay is described as follows: Antifungal activity against Phytophthora infestans after 96 hrs by serial dilution method.
A further assay deals with Globisporangium ultimum. The assay is described as follows: Antifungal activity against Pythium ultimum after 24 hrs by serial dilution method.

With `CCC(C)C(=O)C(O)Cc1c[nH]c2ccccc12` (stereo unspecified), the MIC against Aspergillus fumigatus was greater than 100 µg/mL; in the assay on Aspergillus flavus, greater than 100 µg/mL; with Botrytis cinerea, 12 µg/mL (≈ 48.9 µM); against Candida tropicalis, greater than 100 µg/mL; against Cryptococcus neoformans, greater than 100 µg/mL; against Phytophthora infestans, 100 µg/mL (≈ 408 µM). Moreover, the minimal inhibitory concentration (MIC) with Globisporangium ultimum is greater than 100 µg/mL.

As to `CCC(C)C(=O)C(Cc1c[nH]c2ccccc12)OC(C)=O` (stereo unspecified), the MIC in the assay with Aspergillus fumigatus was greater than 100 µg/mL; with Aspergillus flavus, greater than 100 µg/mL; against Botrytis cinerea, greater than 100 µg/mL; in the assay with Candida tropicalis it was greater than 100 µg/mL; against Cryptococcus neoformans, 50 µg/mL (≈ 174 µM); with Phytophthora infestans, 100 µg/mL (≈ 348 µM). The molecule also came in with an MIC against Globisporangium ultimum greater than 100 µg/mL.

As for `CC(C)C(=O)C(O)Cc1c[nH]c2ccccc12` (stereo unspecified), the MIC is greater than 100 µg/mL against Aspergillus fumigatus; greater than 100 µg/mL against Aspergillus flavus; 12 µg/mL (≈ 51.9 µM) against Botrytis cinerea; greater than 100 µg/mL against Candida tropicalis; greater than 100 µg/mL with Cryptococcus neoformans; 50 µg/mL (≈ 216 µM) in the assay with Phytophthora infestans. Moreover, the MIC in the assay with Globisporangium ultimum is greater than 100 µg/mL.

Turning to `CC(=O)OC(Cc1c[nH]c2ccccc12)C(=O)C(C)C` (stereo unspecified), the MIC in the assay with Aspergillus fumigatus was greater than 100 µg/mL; against Aspergillus flavus, greater than 100 µg/mL; against Botrytis cinerea, greater than 100 µg/mL; in the assay with Candida tropicalis it was greater than 100 µg/mL; in the assay with Cryptococcus neoformans, 25 µg/mL (≈ 91.5 µM).

As a reminder, the MIC is the lowest concentration found to suppress growth.
